The values that follow come from article PMC10002517, “Inhibition of Transglutaminase 2 as a Therapeutic Strategy in Celiac Disease—In Vitro Studies in Intestinal Cells and Duodenal Biopsies” (International Journal of Molecular Sciences, 2023).

Data set [1] concerns transepithelial passage of P31-43 in Caco-2 cells. Nature of the data set: Transepithelial transport of promofluor-conjugated gliadin peptide P31-43 across Caco-2 monolayers (fluorometry). Format: cell-based, human. The settings on record: 1 µM and 100 µM inhibitor; 3 h. As for the experimental part:
Transepithelial transport of immunogenic and toxic gliadin peptides were examined in Caco-2 cells 7–14 days after confluency. Caco-2 cells were seeded on semi-permeable transwell supports (ThinCert, culture surface: 33.6 mm², pore size: 0.4 µm) in 24-well plates (Greiner Bio One, Pleidelsheim, Germany). Prior to the transport experiments, the integrity of the cell monolayer was tested by measuring the transepithelial electric resistance (TEER) using a volt-ohm meter (Millipore, Schwalbach, Germany). Monolayers with insufficient TEER (<350 Ω/cm^2) were omitted. The synthesis and purification of promofluor-conjugated gliadin peptides were described elsewhere. Cells were either incubated with the immunogenic peptide P56-88 ([…]) or the toxic gliadin peptide P31-43 (LGQQQPFPPQQPY), 7 µg/mL each, in Hank’s balanced salt solution (HBSS) for 3 h. To investigate the role of TG2 on the transport of gliadin peptides, incubation was performed in the presence of ERW1041 and PX-12. After 3 h, basal and apical supernatants were collected, and the relative fluorescence of the basal compartment was quantified using a FLUOstar Optima (BMG Labtech) microplate reader. Background subtraction was performed against conditions, where no labeled peptides were used. Normalization was performed against conditions, where no inhibitors were used.
(In general: Caco-2 monolayers are a common model of the intestinal barrier.)

For data set [2] the following is noted: given intravenously, clinical trials; rapid binding to plasma components; cited from earlier work. From the text:
This might be explained by rapid degradation or reduction of PX-12 by living cells. This is in line with observations in clinical trials, where PX-12 plasma levels were very low when given intravenously due to rapid binding to plasma components.

On to `O=C(NC[C@@H]1CC(Br)=NO1)[C@@H]1CCCN1C(=O)OCc1cnc2ccccc2c1` [ERW1041], for which the “transport of P31-43” value in data set [1] is recorded as “remained unaffected”.
For the compound `CCC(C)SSc1ncc[nH]1` (centres unmarked) [PX-12, 2-[(1-methylpropyl)dithio]-1H-imidazole], the plasma levels result in data set [2] is “very low”.
